Measured values reported in patent US20190133985A1 (Orbus Therapeutics, Inc., priority 2016, published 2019).
Where a name gives a salt, the structure may show the parent alone. Blank lines part the entries; values can stand above or below the molecule they belong to.

Assays:
ADAM 32 gene = assay: Exon-Seq frequency of G/A mutation at chr8: 38,964,647 in U87MG cells; conditions: for mutation rate: TMZ EC-50 for 3 days then eflornithine 200 μM
GPR116 gene = assay: Exon-Seq frequency of C/T mutation at chr6: 46,867,771 in U87MG cells; conditions: for mutation rate: TMZ EC-20 for 3 days then eflornithine 100 μM
U87MG cells = assay: Exon-Seq mutation frequency in glioblastoma cell line model (nucleotides susceptible to TMZ-induced mutations); format: cell-based, human
Method: Preliminary data analysis was performed to identify nucleotides susceptible to temozolomide (TMZ)-induced mutations per TMZ concentration. Mutation frequency results were analyzed for 13,040 nucleotide polymorphisms across 6,455 genes that have been previously identified as potentially cancer related based on their description in the Catalogue of Somatic Mutations in Cancer (COSMIC) database.
Statistical analysis of the Exon-Seq data was performed using JMP™ Software. The mutation frequencies were analyzed using ANOVA analysis of variance and the Student's t-test.

MUC16 gene = assay: Exon-Seq frequency of T/A mutation at chr19: 9,071,763 in U87MG cells; conditions: for mutation rate: TMZ EC-50 for 3 days then eflornithine 200 μM
TP53BP1 gene = assay: Exon-Seq frequency of C/T mutation at chr15: 43,762,196 in U87MG cells; conditions: for mutation rate: TMZ EC-50 for 3 days then eflornithine 200 μM
low-grade gliomas = conditions: adjuvant temozolomide chemotherapy; TMZ-induced mutagenesis signature in RB and AKT-mTOR pathways; cited from earlier work

SMILES: NCCCC(N)(C(=O)O)C(F)F (racemic) [eflornithine, D,L-2-(difluoromethyl) ornithine monohydrochloride monohydrate]
mutation rate (ADAM 32 gene; 7 days): 33.3%
mutation rate (ADAM 32 gene; 14 days): 43.2%
mutation rate (GPR116 gene; 7 days): 60.6%
mutation rate (GPR116 gene; 14 days): 45.0%
effect on mutation rate compared to the TMZ-treated cells, combined data set (ANOVA, Student's t-test) (U87MG cells; sequential DFMO 100 μM after TMZ EC-20): significant decrease
effect on mutation rate compared to the TMZ-treated cells, combined data set (ANOVA, Student's t-test) (U87MG cells; sequential eflornithine 50 μM after TMZ EC-10): significant decrease
effect on mutation rate compared to the TMZ-treated cells, combined data set (ANOVA, Student's t-test) (U87MG cells; sequential eflornithine 200 μM after TMZ EC-50): significant decrease
mutation rate (MUC16 gene; 7 days): 49.1%
mutation rate (MUC16 gene; 14 days): 47.3%
mutation rate (TP53BP1 gene; 7 days): 29.7%
mutation rate (TP53BP1 gene; 14 days): 38.4%

mutation frequency (ADAM 32 gene; TMZ EC-50, day 3): 63.6%
mutation frequency (GPR116 gene; TMZ EC-20, day 3): 69.6%
Number of nucleotides showing higher than 15% mutation frequency increase due to TMZ treatment (U87MG cells; All three concentrations): 97
Number of nucleotides showing higher than 15% mutation frequency increase due to TMZ treatment (U87MG cells; At least one concentration): 876
Mean Mutation Frequency (U87MG cells; TMZ EC10, T = 3 days): 57%
Number of nucleotides showing higher than 15% mutation frequency increase due to TMZ treatment (U87MG cells; TMZ EC10, 13,040 nucleotide polymorphisms across 6,455 genes): 424
Number of nucleotides showing higher than 15% mutation frequency increase due to TMZ treatment (U87MG cells; TMZ EC20): 436
Mean Mutation Frequency (U87MG cells; TMZ EC20, T = 3 days): 59%
Number of nucleotides showing higher than 15% mutation frequency increase due to TMZ treatment (U87MG cells; TMZ EC50): 417
Mean Mutation Frequency (U87MG cells; TMZ EC50, T = 3 days): 60%
effect on mutation frequency, combined data set (ANOVA, Student's t-test) (U87MG cells; TMZ EC-10): significant increase
effect on mutation frequency, combined data set (ANOVA, Student's t-test) (U87MG cells; TMZ EC-20): significant increase
effect on mutation frequency, combined data set (ANOVA, Student's t-test) (U87MG cells; TMZ EC-50): significant increase
mutation frequency (MUC16 gene; TMZ EC-50, day 3): 64.0%
mutation frequency (TP53BP1 gene; TMZ EC-50, day 3): 62.5%
SMILES: Cn1nnc2c(C(N)=O)ncn2c1=O [TMZ, 4-methyl-5-oxo-2,3,4,6,8-pentazabicyclo[4.3.0]nona-2,7,9-triene-9-carboxamide]
patients whose tumors showed hypermutation (alternative evolutionary path to high-grade glioma) (low-grade gliomas): 6 of 10
